Key:
[1] = cited from earlier work
[2] = test system: cholesterol and triglyceride levels; conditions: cited from earlier work
[3] = test system: major drug metabolizing enzymes (CYP450); parameters: method as in van Heek and Davis, 2002; conditions: ref van Heek and Davis, 2002; cited from earlier work
[4] = Pharmacokinetics of total EZE in plasma, single-dose three-period crossover study, EZE alone vs ATO–EZE combination; type: in vivo, human; conditions: EZE 10 mg coadministered with ATO 80 mg; bioequivalence-based hypothesis
Description: Thirty six healthy Mexicans volunteers of both gender who were between the ages of 18 and 45 (mean ± SEM: 24.71 ± 0.03 years), had heights between 140.0 and 190.0 cm (163.0 ± 0.005 cm), and weighed between 43.50 and 79.50 kg (62.15 ± 1.9 kg) were enrolled in the study. The study protocol was approved by an independent ethics committee as well as by the regulatory authority in Mexico (COFEPRIS), and it was conducted following the ethical principles described in the Declaration of Helsinki. […]
For the determination of both molecules were developed an analytical method, where only once plasma processing is used to obtain both molecules, but the quantification of the analytes was performed on two separate injections ATO in positive electrospray ionization ESI (+) mode and EZE in negative electrospray ionization ESI (-) mode. […]
Chromatographic analysis was performed on UPLC-MS/MS system consisting of Acquity UPLC coupled to a tandem mass spectrometry detector XEVO-TQS (Waters, USA) and Acquity UPLC BEH C18 (1.7 μm, 2.1 × 100 mm) column (Waters, USA). […] MRM data were acquired and analyzed through MassLynx software (Waters, USA). […]

[5] = cited from earlier work; for terminal elimination half-life: the drug and its metabolite, ref Ezzet et al., 2001
[6] = hyperlipidemic patients, dose dependent, ref Nawrocki et al., 1995, Heinonen et al., 1996
[7] = dose of 10 mg, ref Kosoglou et al. (2002)
[8] = oral administration, ref van Heek et al., 2000, Patrick et al., 2002, Malloy and Kane, 2007, Mahley and Bersot, 2008

| Structure (SMILES) | intra-subject variability ([1]; ref European Medicines Agency [EMEA] (2010)) | share of circulating inhibitory activity for HMG-CoA reductase attributed to active metabolites (ortho- and parahydroxy ATO) ([1]; ref Pfizer Inc. Lipitor®, 2009) | reduction of colesterol and triglycerides, significantly larger than equivalent doses of other statin drugs ([2]; P ≤ 0.01, ref Jones et al., 1998) | lowering of cholesterol levels [2, 6] | lowering of triglyceride levels [2, 6] | effect on the activity of major drug metabolizing enzymes (CYP450) [3] | pharmacokinetic drug–drug interaction (on EZE) [4] | Cmax of EZE [5, 7] | area under the curve to the end point of EZE [5, 7] | fraction biotransformed into glucuronide active metabolite ([5]; ref Kosoglou et al. (2002)) | terminal elimination half-life [5] | time of first peak blood level (dual peak, enterohepatic recirculation) [5, 8] | time of second peak blood level (dual peak, enterohepatic recirculation) [5, 8] |
| --- | --- | --- | --- | --- | --- | --- | --- | --- | --- | --- | --- | --- | --- |
| CC(C)c1c(C(=O)Nc2ccccc2)c(-c2ccccc2)c(-c2ccc(F)cc2)n1CC[C@@H](O)C[C@@H](O)CC(=O)O [ATO, Atorvastatin] | > 30% | Approximately 70% | 38–51% | 25–61% | 9–61% | – | – | – | – | – | – | – | – |
| O=C1[C@H](CC[C@H](O)c2ccc(F)cc2)[C@@H](c2ccc(O)cc2)N1c1ccc(F)cc1 [EZE, Ezetimibe] | – | – | – | – | – | no effect | no relevant pharmacokinetic drug–drug interaction | 64.2 to 73.6 ng/mL | 440 to 722 ng·h/mL | > 80% | 20 to 30 h | – | – |
| O=C(O)[C@H]1O[C@@H](Oc2ccc([C@@H]3[C@@H](CC[C@H](O)c4ccc(F)cc4)C(=O)N3c3ccc(F)cc3)cc2)[C@H](O)[C@@H](O)[C@@H]1O [EZE-G] | – | – | – | – | – | – | – | – | – | – | 20 to 30 h | 4 to 6 h | 10 to 12 h |

Source: paper PMC4245888 (Frontiers in Pharmacology, 2014)
